Test [1] concerns M. tuberculosis H37Rv. The test can be described thus: MIC against M. tuberculosis H37Rv in 7H9 medium with various supplements. Type of test: cell-based, Mycobacterium tuberculosis. The following applies: for MIC: Mycobacterium tuberculosis, H37RV.
The subject of test [2] is M. tuberculosis H37Rv. Kind of test: microbe, parasite or virus in culture. The test is classed as cell-based. The following applies: Mycobacterium tuberculosis, read-out: MIC90, H37Rv.
Test [3] concerns M. tuberculosis H37Rv. Kind of test: microbe, parasite or virus in culture. Type of test: cell-based.
Test [4] has as its system M. tuberculosis Erdman pFCA-LuxAB (Erdman Lux). The following applies: BALB/c mice, 100 mg/kg p.o. daily, 12 days.
The next test relates to Mtb. The test is classed as in vivo. The following applies: 100 mg/kg, day 21; limit 1.57 log10 CFU.
Setting [5] is: read-out: MIC, DPPC/Chol/BSA/TX.

Values after ≈ are worked out from the molar mass of the structure shown.

Take `CC(=O)NCC1CN(c2cc3c(c(F)c2F)N2C[C@H](C)O[C@H](C)[C@H]2C2(C3)C(=O)NC(=O)NC2=O)C(=O)O1` (stereo partly drawn) [Compound 24]: the MIC is > 50 µM in the test with M. tuberculosis H37Rv [1] (read-out: MIC, ADC/GLU/TW); > 50 µM with M. tuberculosis H37Rv [1] (read-out: MIC, DPPC/CAS/TX); > 50 µM with M. tuberculosis H37Rv [1] (setting [5]); > 50 µM in the test on M. tuberculosis H37Rv [1] (read-out: MIC, GLU/BSA/TX); > 50 µM with M. tuberculosis H37Rv [1] (read-out: MIC, GLU/CAS/TX). Besides, the “activity in the M. tuberculosis MIC assays” value with M. tuberculosis H37Rv [1] (any of the MIC media) is given as “did not show activity at the highest concentration tested”.

On to `CC1CN2c3c(cc4c(N5C(=O)OCC5CCO)noc4c3F)CC3(C(=O)NC(=O)NC3=O)C2C(C)O1` (stereo not drawn) [Compound 1], for which the MIC worked out at 3.9 µM (≈ 2.02 µg/mL) with M. tuberculosis H37Rv [1] (read-out: MIC, ADC/GLU/TW); 6.2 µM (≈ 3.21 µg/mL) in the test on M. tuberculosis H37Rv [1] (read-out: MIC, DPPC/CAS/TX); 9.4 µM (≈ 4.86 µg/mL) in the test on M. tuberculosis H37Rv [1] (setting [5]); 9.4 µM (≈ 4.86 µg/mL) with M. tuberculosis H37Rv [1] (read-out: MIC, GLU/BSA/TX); 4.7 µM (≈ 2.43 µg/mL) with M. tuberculosis H37Rv [1] (read-out: MIC, GLU/CAS/TX).

`CC1CN2c3c(cc4c(N5C(=O)OC6CCOCC65)noc4c3F)CC3(C(=O)NC(=O)NC3=O)C2C(C)O1` (stereo not drawn) [Compound 13]: the MIC with M. tuberculosis H37Rv [1] (read-out: MIC, ADC/GLU/TW) amounted to 1.9 µM (≈ 1.01 µg/mL); with M. tuberculosis H37Rv [1] (read-out: MIC, DPPC/CAS/TX), 12 µM (≈ 6.35 µg/mL); in the test with M. tuberculosis H37Rv [1] (setting [5]), 4.7 µM (≈ 2.49 µg/mL); with M. tuberculosis H37Rv [1] (read-out: MIC, GLU/BSA/TX) it was 6.2 µM (≈ 3.28 µg/mL); with M. tuberculosis H37Rv [1] (read-out: MIC, GLU/CAS/TX) it was 4.7 µM (≈ 2.49 µg/mL).

Take `CC(C)=CCC/C(C)=C/CNCCNC1C2CC3CC(C2)CC1C3` (stereo not drawn) [SQ109]: the MIC90 in the test on M. tuberculosis H37Rv [2] was found to be 0.49 µM (≈ 0.162 µg/mL).

Consider `C[C@@H]1CN2c3c(cc4c(-n5ncnc5NCCO)noc4c3F)CC3(C(=O)NC(=O)NC3=O)[C@H]2[C@H](C)O1` [Compound 14], for which the “fold more active than zoliflodacin against M. tuberculosis” value in the test on M. tuberculosis H37Rv [1] (H37Rv, across the MIC media) was found to be 16 fold. The MIC in the test on M. tuberculosis H37Rv [1] (read-out: MIC, ADC/GLU/TW) worked out at 0.24 µM (≈ 0.123 µg/mL); in the test with M. tuberculosis H37Rv [1] (read-out: MIC, DPPC/CAS/TX), 1.6 µM (≈ 0.823 µg/mL); in the test on M. tuberculosis H37Rv [1] (setting [5]) it was 1.2 µM (≈ 0.617 µg/mL); with M. tuberculosis H37Rv [1] (read-out: MIC, GLU/BSA/TX) it was 1.2 µM (≈ 0.617 µg/mL); in the test on M. tuberculosis H37Rv [1] (read-out: MIC, GLU/CAS/TX) it was 0.6 µM (≈ 0.309 µg/mL).

As to `CC1CN2c3c(cc4c(N5C(=O)OCC5CO)noc4c3F)CC3(C(=O)NC(=O)NC3=O)C2C(C)O1` (stereo not drawn) [Compound 2], the MIC in the test with M. tuberculosis H37Rv [1] (read-out: MIC, ADC/GLU/TW) is 2 µM (≈ 1.01 µg/mL); with M. tuberculosis H37Rv [1] (read-out: MIC, DPPC/CAS/TX), 6.2 µM (≈ 3.12 µg/mL); in the test on M. tuberculosis H37Rv [1] (setting [5]), 4.7 µM (≈ 2.37 µg/mL); in the test with M. tuberculosis H37Rv [1] (read-out: MIC, GLU/BSA/TX), 6.2 µM (≈ 3.12 µg/mL); in the test with M. tuberculosis H37Rv [1] (read-out: MIC, GLU/CAS/TX), 3.1 µM (≈ 1.56 µg/mL).

With `C[C@@H]1CN2c3c(cc4c(-n5ncnc5NCCN(C)C)noc4c3F)CC3(C(=O)NC(=O)NC3=O)[C@H]2[C@H](C)O1` [Compound 15], the MIC with M. tuberculosis H37Rv [1] (read-out: MIC, ADC/GLU/TW) was found to be 2 µM (≈ 1.08 µg/mL); with M. tuberculosis H37Rv [1] (read-out: MIC, DPPC/CAS/TX) it was 1.6 µM (≈ 0.866 µg/mL); in the test on M. tuberculosis H37Rv [1] (setting [5]), 3.1 µM (≈ 1.68 µg/mL); in the test with M. tuberculosis H37Rv [1] (read-out: MIC, GLU/BSA/TX) it was 1.6 µM (≈ 0.866 µg/mL); in the test on M. tuberculosis H37Rv [1] (read-out: MIC, GLU/CAS/TX), 2.3 µM (≈ 1.25 µg/mL).

Regarding `CC(=O)NC[C@H]1CN(c2ccc(N3CCOCC3)c(F)c2)C(=O)O1` [Linezolid, linezolid], the “MBC relative to MIC” value in the test with M. tuberculosis H37Rv [3] (CARA) is listed as “greater than 4 fold”. Also, the MIC in the test with M. tuberculosis H37Rv [3] (Mycobacterium tuberculosis, 168 h, H37Rv, 7 days, Middlebrook 7H9 with OADC and glycerol, read-out: MIC (dose-response)) turned out to be 1.51 µM (≈ 0.509 µg/mL). This compound yielded an MBC against M. tuberculosis H37Rv [3] (Mycobacterium tuberculosis, H37RV, 168 h, CARA, transfer to charcoal agar, additional 7 days) of 7.8 µM (≈ 2.63 µg/mL).

For the compound `C[C@@H]1CN2c3c(cc4c(C5=N[C@H]6COC[C@H]6N5)noc4c3F)CC3(C(=O)NC(=O)NC3=O)[C@H]2[C@H](C)O1` [Compound 21], the MIC with M. tuberculosis H37Rv [1] (read-out: MIC, ADC/GLU/TW) came out at 3.4 µM (≈ 1.69 µg/mL); in the test on M. tuberculosis H37Rv [1] (read-out: MIC, DPPC/CAS/TX), 9.4 µM (≈ 4.69 µg/mL); with M. tuberculosis H37Rv [1] (setting [5]), 9.4 µM (≈ 4.69 µg/mL); with M. tuberculosis H37Rv [1] (read-out: MIC, GLU/BSA/TX), 6.2 µM (≈ 3.09 µg/mL); in the test with M. tuberculosis H37Rv [1] (read-out: MIC, GLU/CAS/TX), 6.2 µM (≈ 3.09 µg/mL).

In the case of `CC1CN2c3c(cc4c(N5C(=O)OCC5c5ncnn5C)noc4c3F)CC3(C(=O)NC(=O)NC3=O)C2C(C)O1` (stereo not drawn) [Compound 9], the MIC was 16 µM (≈ 8.87 µg/mL) in the test with M. tuberculosis H37Rv [1] (read-out: MIC, ADC/GLU/TW); > 50 µM in the test with M. tuberculosis H37Rv [1] (read-out: MIC, DPPC/CAS/TX); > 50 µM in the test with M. tuberculosis H37Rv [1] (setting [5]); > 50 µM in the test on M. tuberculosis H37Rv [1] (read-out: MIC, GLU/BSA/TX); 37 µM (≈ 20.5 µg/mL) in the test with M. tuberculosis H37Rv [1] (read-out: MIC, GLU/CAS/TX).

Regarding `CC1CN2c3c(cc4c(N5C(=O)OC(C)C5C)noc4c3F)CC3(C(=O)NC(=O)NC3=O)C2C(C)O1` (stereo not drawn) [Compound 7], the MIC came to 3.9 µM (≈ 1.96 µg/mL) in the test on M. tuberculosis H37Rv [1] (read-out: MIC, ADC/GLU/TW); 37 µM (≈ 18.6 µg/mL) with M. tuberculosis H37Rv [1] (read-out: MIC, DPPC/CAS/TX); 19 µM (≈ 9.53 µg/mL) in the test on M. tuberculosis H37Rv [1] (setting [5]); 25 µM (≈ 12.5 µg/mL) in the test on M. tuberculosis H37Rv [1] (read-out: MIC, GLU/BSA/TX); 12 µM (≈ 6.02 µg/mL) in the test with M. tuberculosis H37Rv [1] (read-out: MIC, GLU/CAS/TX).

As for `CC[C@@H](CO)NCCN[C@@H](CC)CO` [Ethambutol, ethambutol, reference compound], the “CFU decline in lung burdens relative to the untreated controls” value in test [4] stood at 2.6 log10 CFU. The “n, number of mice showing viable bacteria above the lower limit of detection/total number of animals tested” value in the test with Mtb is 5/5.

For the compound `COc1ncnn1-c1noc2c(F)c3c(cc12)CC1(C(=O)NC(=O)NC1=O)[C@H]1[C@H](C)O[C@H](C)CN31` [Compound 16], the MIC was 2 µM (≈ 0.971 µg/mL) in the test on M. tuberculosis H37Rv [1] (read-out: MIC, ADC/GLU/TW); 12 µM (≈ 5.83 µg/mL) in the test on M. tuberculosis H37Rv [1] (read-out: MIC, DPPC/CAS/TX); 9.4 µM (≈ 4.56 µg/mL) in the test with M. tuberculosis H37Rv [1] (setting [5]); 12 µM (≈ 5.83 µg/mL) in the test with M. tuberculosis H37Rv [1] (read-out: MIC, GLU/BSA/TX); 9.4 µM (≈ 4.56 µg/mL) in the test with M. tuberculosis H37Rv [1] (read-out: MIC, GLU/CAS/TX).

For `COCC1COC(=O)N1c1noc2c(F)c3c(cc12)CC1(C(=O)NC(=O)NC1=O)C1C(C)OC(C)CN31` (stereo not drawn) [Compound 8], the MIC with M. tuberculosis H37Rv [1] (read-out: MIC, ADC/GLU/TW) was determined as 7.8 µM (≈ 4.04 µg/mL); in the test with M. tuberculosis H37Rv [1] (read-out: MIC, DPPC/CAS/TX) it was 25 µM (≈ 12.9 µg/mL); with M. tuberculosis H37Rv [1] (setting [5]), 12 µM (≈ 6.21 µg/mL); in the test with M. tuberculosis H37Rv [1] (read-out: MIC, GLU/BSA/TX) it was 25 µM (≈ 12.9 µg/mL); in the test with M. tuberculosis H37Rv [1] (read-out: MIC, GLU/CAS/TX) it was 19 µM (≈ 9.83 µg/mL).

Source of the values: PMC9017349, “Spiropyrimidinetriones: a Class of DNA Gyrase Inhibitors with Activity against Mycobacterium tuberculosis and without Cross-Resistance to Fluoroquinolones” (Antimicrobial Agents and Chemotherapy, 2022).
